Measured values as given in PubChem BioAssay AID256 (DTP/NCI, 2004).
Toxic doses and inconclusive results are not listed.

Test system: CD2F1 mice, L1210 leukemia ip, survival T/C
Test: NCI In Vivo Anticancer Drug Screen. Data for tumor model L1210 Leukemia (intraperitoneal) in CD2F1 (CDF1) mice
Conditions: endpoint: mean survival time, higher = longer survival
Experimental: The antitumor activity of compounds was measured in mice bearing transplantable tumors. Survival or tumor size were measured and the results are expressed as the measurement made in the treated group (T) divided by the measurement made in the vehicle treated control group (C). The tumor model used in this assay is L1210 Leukemia (intraperitoneal) in CD2F1 (CDF1) mice

[1] = dose: 100.0 mg/kg/injection, schedule: Q01DX009 (ip), vehicle: saline with Tween-80
[2] = dose: 200.0 mg/kg/injection, schedule: Q01DX009 (ip), vehicle: saline with Tween-80
[3] = dose: 400.0 mg/kg/injection, schedule: Q01DX009 (ip), vehicle: saline with Tween-80
[4] = dose: 50.0 mg/kg/injection, schedule: Q01DX009 (ip), vehicle: saline with Tween-80
[5] = dose: 100.0 mg/kg/injection, schedule: Q04DX002 (ip), vehicle: saline
[6] = dose: 200.0 mg/kg/injection, schedule: Q04DX002 (ip), vehicle: saline
[7] = dose: 25.0 mg/kg/injection, schedule: Q04DX003 (ip), vehicle: saline
[8] = dose: 50.0 mg/kg/injection, schedule: Q04DX003 (ip), vehicle: saline
[9] = dose: 100.0 mg/kg/injection, schedule: Q04DX003 (ip), vehicle: saline
[10] = dose: 200.0 mg/kg/injection, schedule: Q04DX003 (ip), vehicle: saline
[11] = dose: 100.0 mg/kg/injection, schedule: Q01DX001 (ip), vehicle: saline with Tween-80
[12] = dose: 100.0 mg/kg/injection, schedule: Q01DX001 (ip), vehicle: saline
[13] = dose: 200.0 mg/kg/injection, schedule: Q01DX001 (ip), vehicle: saline

CC1(C)CC(=O)C=C(OCCc2ccccc2)C1
T/C [1]: 102 % of control | T/C [2]: 102 % of control | T/C [3]: 102 % of control

O=C(OCc1ccccc1)C1CC1 (tested in a mixture with another compound)
T/C (dose: 25.0 mg/kg/injection, schedule: Q01DX009 (ip), vehicle: saline with Tween-80): 86 % of control | T/C (dose: 50.0 mg/kg/injection, schedule: Q01DX005 (ip), vehicle: saline with Tween-80): 101 % of control | T/C [4]: 96 % of control | T/C (dose: 50.0 mg/kg/injection, schedule: Q04DX002 (ip), vehicle: saline): 102 % of control | T/C (dose: 100.0 mg/kg/injection, schedule: Q01DX005 (ip), vehicle: saline with Tween-80): 93 % of control | T/C [1]: 86 % of control | T/C [5]: 97 % of control | T/C (dose: 200.0 mg/kg/injection, schedule: Q01DX005 (ip), vehicle: saline with Tween-80): 97 % of control | T/C [2]: 86 % of control | T/C [6]: 105 % of control | T/C (dose: 400.0 mg/kg/injection, schedule: Q04DX002 (ip), vehicle: saline): 97 % of control

COc1ccc(C(=O)NNC(=O)c2ccc(OC)c(OC)c2)cc1OC
T/C (dose: 12.5 mg/kg/injection, schedule: Q01DX009 (ip), vehicle: other): 92 % of control | T/C (dose: 25.0 mg/kg/injection, schedule: Q01DX009 (ip), vehicle: other): 93 % of control | T/C (dose: 50.0 mg/kg/injection, schedule: Q01DX009 (ip), vehicle: other): 92 % of control | T/C (dose: 100.0 mg/kg/injection, schedule: Q01DX009 (ip), vehicle: other): 108 % of control | T/C (dose: 200.0 mg/kg/injection, schedule: Q01DX009 (ip), vehicle: other): 107 % of control

N#Cc1c2ccccc2nn1C1OC(CO)C(O)C1O (stereo unspecified)
T/C (dose: 100.0 mg/kg/injection, schedule: Q01DX005 (ip), vehicle: saline): 109 % of control | T/C (dose: 200.0 mg/kg/injection, schedule: Q01DX005 (ip), vehicle: saline): 98 % of control

CNNCCCC(=O)NC(C)C
T/C [7]: 105 % of control | T/C [8]: 103 % of control | T/C [9]: 110 % of control | T/C [10]: 112 % of control

CCOC12c3c4cccc3Oc3cccc(c31)S(=O)(=O)c1cccc(c12)O4
T/C [11]: 89 % of control | T/C (dose: 200.0 mg/kg/injection, schedule: Q01DX001 (ip), vehicle: saline with Tween-80): 89 % of control

CC1(C2CC(=O)c3c(O)ccc(O)c3C2)OCCO1 (stereo unspecified)
T/C (dose: 25.0 mg/kg/injection, schedule: Q01DX009 (ip), vehicle: Klucel (hydroxypropylcellulose) (HPC)): 104 % of control | T/C (dose: 50.0 mg/kg/injection, schedule: Q01DX009 (ip), vehicle: Klucel (hydroxypropylcellulose) (HPC)): 109 % of control | T/C (dose: 100.0 mg/kg/injection, schedule: Q01DX009 (ip), vehicle: Klucel (hydroxypropylcellulose) (HPC)): 95 % of control | T/C (dose: 200.0 mg/kg/injection, schedule: Q01DX009 (ip), vehicle: Klucel (hydroxypropylcellulose) (HPC)): 98 % of control | T/C (dose: 400.0 mg/kg/injection, schedule: Q01DX009 (ip), vehicle: Klucel (hydroxypropylcellulose) (HPC)): 102 % of control

CSC(=O)C(=O)SC
T/C (dose: 50.0 mg/kg/injection, schedule: Q01DX001 (ip), vehicle: saline with Tween-80): 100 % of control | T/C [11]: 108 % of control

C1=CC2C=CC12 (stereo unspecified)
T/C [4]: 105 % of control | T/C [1]: 108 % of control | T/C (dose: 100.0 mg/kg/injection, schedule: Q04DX003 (ip), vehicle: saline with Tween-80): 95 % of control | T/C (dose: 200.0 mg/kg/injection, schedule: Q04DX003 (ip), vehicle: saline with Tween-80): 104 % of control

C[n+]1cccc(C=O)c1
T/C [12]: 103 % of control | T/C [13]: 105 % of control | T/C (dose: 400.0 mg/kg/injection, schedule: Q01DX001 (ip), vehicle: saline): 108 % of control

COC(=O)NC1=C(N2CC2)C(=O)C(NC(=O)OC)=C(N2CC2)C1=O
T/C (dose: 0.75 mg/kg/injection, schedule: Q01DX009 (ip), vehicle: saline): 154 % of control | T/C (dose: 1.5 mg/kg/injection, schedule: Q01DX009 (ip), vehicle: saline): 175 % of control

Nc1nc(N)c2nc(CNc3ccc(C(=O)NC(CC(=O)O)C(=O)O)cc3)cnc2n1 (stereo unspecified)
T/C (dose: 6.25 mg/kg/injection, schedule: Q01DX001 (ip), vehicle: saline): 101 % of control | T/C (dose: 12.5 mg/kg/injection, schedule: Q01DX001 (ip), vehicle: saline): 98 % of control | T/C (dose: 25.0 mg/kg/injection, schedule: Q01DX001 (ip), vehicle: saline): 107 % of control | T/C (dose: 50.0 mg/kg/injection, schedule: Q01DX001 (ip), vehicle: saline): 104 % of control | T/C [12]: 104 % of control | T/C [13]: 117 % of control

O=S(=O)(OC(Cc1ccccc1)Cc1ccccc1)c1ccc(Br)cc1
T/C [4]: 95 % of control | T/C [1]: 91 % of control | T/C [2]: 95 % of control

CCCCCc1ccc(C(C)=O)cc1
T/C [1]: 103 % of control | T/C [2]: 103 % of control | T/C [3]: 88 % of control

C(=Nc1ccccc1)c1ccc(-c2ccccc2)cc1
T/C [1]: 95 % of control | T/C (dose: 100.0 mg/kg/injection, schedule: Q04DX003 (ip), vehicle: saline sonified): 97 % of control | T/C [2]: 98 % of control | T/C (dose: 200.0 mg/kg/injection, schedule: Q04DX003 (ip), vehicle: saline sonified): 101 % of control | T/C [3]: 108 % of control | T/C (dose: 400.0 mg/kg/injection, schedule: Q04DX003 (ip), vehicle: saline sonified): 94 % of control

CCOC(=O)/C=C\C(=O)O.[Mn]
T/C [7]: 102 % of control | T/C [8]: 104 % of control | T/C [5]: 98 % of control | T/C [9]: 112 % of control | T/C [13]: 98 % of control | T/C [6]: 97 % of control | T/C (dose: 300.0 mg/kg/injection, schedule: Q04DX002 (ip), vehicle: saline): 116 % of control

CC1COCC(C)N1 (stereo unspecified)
T/C [9]: 96 % of control | T/C [10]: 98 % of control | T/C (dose: 400.0 mg/kg/injection, schedule: Q04DX003 (ip), vehicle: saline): 96 % of control
